Measured values published in paper PMC5591244, “Novel selective, potent naphthyl TRPM8 antagonists identified through a combined ligand- and structure-based virtual screening approach” (Scientific Reports, 2017).

Columns and labels:
Assay type in all cases: cell-based
TRPM8 = molecular target: T1, TRPM8 (Homo sapiens, UniProt Q7Z2W7); test: Calcium mobilization assay (HTS and dose-response) on HEK-293/hTRPM8 cells; details: for Max inhibition: HTS campaign, Cooling agent 10 30 μM, %inhibition values obtained at 10 mM (so in the source)
T1 construct: expressed in transfected cells
T1 sequence (Q7Z2W7 whole entry): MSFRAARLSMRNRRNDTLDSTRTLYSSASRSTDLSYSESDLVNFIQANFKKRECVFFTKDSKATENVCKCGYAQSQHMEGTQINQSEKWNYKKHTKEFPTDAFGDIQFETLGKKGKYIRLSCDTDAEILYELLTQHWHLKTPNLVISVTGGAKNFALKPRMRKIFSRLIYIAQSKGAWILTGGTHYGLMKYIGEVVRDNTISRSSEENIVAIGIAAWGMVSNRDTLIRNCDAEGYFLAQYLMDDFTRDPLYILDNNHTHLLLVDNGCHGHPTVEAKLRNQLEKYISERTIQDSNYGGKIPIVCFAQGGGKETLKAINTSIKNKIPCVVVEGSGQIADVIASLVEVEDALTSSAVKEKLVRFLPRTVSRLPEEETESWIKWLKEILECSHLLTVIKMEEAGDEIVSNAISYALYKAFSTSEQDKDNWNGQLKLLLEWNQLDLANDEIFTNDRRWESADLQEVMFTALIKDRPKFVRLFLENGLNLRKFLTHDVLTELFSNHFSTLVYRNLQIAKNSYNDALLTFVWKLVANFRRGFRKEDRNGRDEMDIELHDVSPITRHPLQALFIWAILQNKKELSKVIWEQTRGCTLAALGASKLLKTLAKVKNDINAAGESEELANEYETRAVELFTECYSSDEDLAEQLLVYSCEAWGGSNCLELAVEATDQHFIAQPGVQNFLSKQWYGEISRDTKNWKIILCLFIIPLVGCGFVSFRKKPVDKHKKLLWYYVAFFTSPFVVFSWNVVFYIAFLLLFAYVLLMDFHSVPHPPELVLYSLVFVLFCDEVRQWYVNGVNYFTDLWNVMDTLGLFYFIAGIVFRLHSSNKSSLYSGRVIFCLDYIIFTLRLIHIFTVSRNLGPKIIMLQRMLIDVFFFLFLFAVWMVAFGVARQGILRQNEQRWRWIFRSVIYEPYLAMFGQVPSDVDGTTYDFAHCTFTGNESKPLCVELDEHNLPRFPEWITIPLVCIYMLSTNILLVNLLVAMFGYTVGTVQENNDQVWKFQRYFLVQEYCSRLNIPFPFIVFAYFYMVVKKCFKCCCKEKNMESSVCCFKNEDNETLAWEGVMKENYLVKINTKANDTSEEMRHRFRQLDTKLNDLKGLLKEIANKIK
Method: All experiments were performed on HEK-293/hTRPM8 cells stably transfected with the human TRPM8 gene, except for site-directed mutagenesis analysis, which was performed on transient transfectants. In details, HEK-293 cells (ATCC, Manassas, Virginia) were transfected with the pcDNA3/hTRPM8 vector by electroporation (300 Volts, 950 µF) then selected with medium containing 0,8 mg/ml G418 for 10–15 days. Then the stable transfected pool underwent two rounds of limiting dilutions, in eight 96 well plates at a cell density of 1 cell/well, in order to obtain pure clones. The best responder clone was selected based on its response to 1 mM menthol in calcium mobilization experiments. HEK-293/hTRPM8 cells were maintained in EMEM (Minimum Essential Medium Eagle with Earl’s salts Balanced Salt Solution, LONZA) supplemented with 2 mM Ultraglutamine1 (Lonza), 1% Penicillin/Streptomycin (LONZA), 10% of Fetal Bovine Serum (Euroclone) and 0,4 mg/mL G418 (InvivoGen).
For calcium mobilization assays, cells were seeded at 10,000 cells/well in 384-well plates coated with poly-D-lysine (MATRIX black/clear bottom #4332-CPL, Thermo Scientific, Waltham, MA, USA) in complete medium.Twenty-four hours after seeding, the plates were washed with Tyrode’s buffer with a Bio-Tek-ELx405 Microplate Washer (Merck Millipore; Billerica, MA, USA), and then 10 µl/well of a solution containing the fluorescent Ca^2+ indicator Fluo-4 NW dye was added. Cells were incubated for 1 h at room temperature before test compounds were added at 3X the concentration with respect to the final wanted concentration to be tested with a FLIPR TETRA system (Molecular Devices, Sunnyvale, CA, USA). Calcium mobilization was monitored over a period of 5 min. A second injection of 10 µl/well of a reference agonist (icilin or Cooling agent 10) at 4X concentration in assay buffer was performed using the FLIPR TETRA system. Of note, for selectivity assays, the following agonists were used: 10 μM AITC (allyl isothiocyanate) for TRPA1; 100 nM Capsaicin for TRPV1; and 20 nM GSK1016790A for TRPV4.
After addition of the agonist, the fluorescence signal was recorded over the next 3 min. The bioactivity exerted by the compounds was expressed as a percentage of inhibition. The percentage scale is defined as follows: 100% inhibition was considered as the relative fluorescence units (RFUs) of the value of the MIN controls in the second injection (antagonist Capsazepine at IC100 = 50 µM) and 0% inhibition was considered as the RFU values of the value of the MAX controls in the second injection (Cooling agent 10 at EC80 = 30 µM). Data from four replicates were analyzed using GraphPad PRISM® software (version 5, GraphPad Software Inc.) to calculate the mean and standard error of the mean, to create sigmoidal concentration-response curves and to calculate IC50 values.

TRPM8 N799A = molecular target: T2, TRPM8 N799A (Homo sapiens, UniProt Q7Z2W7, N799A); test: Calcium mobilization on transiently transfected TRPM8 N799A mutant; details: agonist calcium response, N799A
T2 construct: expressed in transfected cells; host or cells: HEK-293, transient (Lipofectamine 2000)
T2 sequence (Q7Z2W7 whole entry N799A): as the sequence (Q7Z2W7 whole entry) above, with N799A counted along it
From the text: (§1) Single point mutations were introduced in the hTRPM8-coding sequence, and the mutated TRPM8 was cloned as N-terminal c-myc tagged version into the pcDNA3 expression vector. This was done in that way that the single variations could be easily swapped from the myc-tagged expression construct into the non-tagged TRPM8 wild type expression construct.
(§2) The list of the variants is the following: variant 1, t2233g, a2234c (=Y745A); variant 2, a2236g, t2237c (=I746A); variant 3, a2395g, a2396c (=N799A) and variant 4, a2405c (D802A). The cloning project comprised three steps. First of all, a unique XhoI restriction site was inserted by site-directed mutagenesis (SDM) using DNA of the pcDNA3_TRPM8 construct as template. The 0.6 kb DNA fragment between the unique 5′ XhoI (introduced) and 3′ BamHI (already present) restriction sites comprised all positions of the four single point mutations and could be later used for their insertion as well as swapping between myc-tagged and non-tagged TRPM8 versions. In a second step, the c-myc tag sequence was introduced embedded within the TRPM8 coding sequence by PCR primers in two partially overlapping PCRs that were then joined by bridge PCR with the external 5′KpnI and internal 3′EcoRI primers and in the last step the point mutations 1 to 4 were inserted into pcDNA3_c-myc-TRPM8 by exchanging the wild type 5′XhoI-3′BamHI fragment (0.6 kb) with each of the corresponding variation fragment derived from synthetic DNA (provided by GeneArt, ThermoFisher Scientific).The myc-tagged constructs were transiently transfected in HEK-293 cells with Lipofectamine 2000 (Invitrogen) according to the manufacturer’s protocol. The pcDNA vectors containing the wt myc-tagged TRPM8 gene and the empty pcDNA3 (mock) were separately transfected into HEK-293 cells as controls. Cells were transfected and seeded on the same day at 17,500 cells/well in poly-D-lysine-coated 384-well plates (MATRIX #4332-CPL). Twenty-four hours after seeding, the activity of transfected TRPM8 receptors was tested using the calcium mobilization assay as described above. The analysis was performed on the basis of ΔF/F° (normalized MAX-MIN), where ΔF is the MAX between time points 117 and 182 minus the MIN between time points TP114 and TP116, and F° is the basal signal at time point TP0. The obtained data from at least four wells (as replicates) were analyzed with GraphPad PRISM® software (version 5, GraphPad Software Inc.) to calculate the mean and standard error of the mean[58], to create sigmoidal concentration-response curves and to calculate IC50 values.

TRPM8 Y745A = molecular target: T3, TRPM8 Y745A (Homo sapiens, UniProt Q7Z2W7, Y745A); test: Calcium mobilization on transiently transfected TRPM8 Y745A mutant; details: agonist calcium response
T3 construct: expressed in transfected cells; host or cells: HEK-293, transient (Lipofectamine 2000)
T3 sequence (Q7Z2W7 whole entry Y745A): as the sequence (Q7Z2W7 whole entry) above, with Y745A counted along it
From the text: as §1
as §2, with “Cells were transfected and seeded on the same day at 17,500 cells/well in poly-D-lysine-coated 384-well plates (MATRIX #4332-CPL). Twenty-four hours after seeding, the activity of transfected TRPM8 receptors was tested using the calcium mobilization assay as described above. The analysis was performed on the basis of ΔF/F° (normalized MAX-MIN), where ΔF is the MAX between time points 117 and 182 minus the MIN between time points TP114 and TP116, and F° is the basal signal at time point TP0.” left out

TRPM8 I746A = molecular target: T4, TRPM8 I746A (Homo sapiens, UniProt Q7Z2W7, I746A); test: Calcium mobilization on transiently transfected TRPM8 I746A mutant; details: agonist calcium response, I746A
T4 construct: expressed in transfected cells; host or cells: HEK-293, transient (Lipofectamine 2000)
T4 sequence (Q7Z2W7 whole entry I746A): as the sequence (Q7Z2W7 whole entry) above, with I746A counted along it
From the text: as §1, §2

TRPM8 D802A = molecular target: T5, TRPM8 D802A (Homo sapiens, UniProt Q7Z2W7, D802A); test: Calcium mobilization on transiently transfected TRPM8 D802A mutant; details: agonist calcium response, D802A
T5 construct: expressed in transfected cells; host or cells: HEK-293, transient (Lipofectamine 2000)
T5 sequence (Q7Z2W7 whole entry D802A): as the sequence (Q7Z2W7 whole entry) above, with D802A counted along it
From the text: as §1
as §2, with “Cells were transfected and seeded on the same day at 17,500 cells/well in poly-D-lysine-coated 384-well plates (MATRIX #4332-CPL). Twenty-four hours after seeding, the activity of transfected TRPM8 receptors was tested using the calcium mobilization assay as described above. The analysis was performed on the basis of ΔF/F° (normalized MAX-MIN), where ΔF is the MAX between time points 117 and 182 minus the MIN between time points TP114 and TP116, and F° is the basal signal at time point TP0.” left out

wt TRPM8 = molecular target: T6, wt TRPM8 (Homo sapiens, UniProt Q7Z2W7); test: Calcium mobilization on HEK-293 cells transiently transfected with wt myc-tagged TRPM8; details: agonist calcium response, wt; read-out: pIC50 of the agonist (agonist dose response), wt TRPM8 (converted)
T6 construct: expressed in transfected cells; host or cells: HEK-293, transient (Lipofectamine 2000)
T6 sequence (Q7Z2W7 whole entry): as the sequence (Q7Z2W7 whole entry) above
From the text: as §1
The list of the variants is the following: variant 1, t2233g, a2234c (=Y745A); variant 2, a2236g, t2237c (=I746A); variant 3, a2395g, a2396c (=N799A) and variant 4, a2405c (D802A). The cloning project comprised three steps. First of all, a unique XhoI restriction site was inserted by site-directed mutagenesis (SDM) using DNA of the pcDNA3_TRPM8 construct as template. The 0.6 kb DNA fragment between the unique 5′ XhoI (introduced) and 3′ BamHI (already present) restriction sites comprised all positions of the four single point mutations and could be later used for their insertion as well as swapping between myc-tagged and non-tagged TRPM8 versions. […] The obtained data from at least four wells (as replicates) were analyzed with GraphPad PRISM® software (version 5, GraphPad Software Inc.) to calculate the mean and standard error of the mean[58], to create sigmoidal concentration-response curves and to calculate IC50 values.

Structure (SMILES)	Max inhibition (TRPM8)	Agonist activity on N799A mutant (words) (TRPM8 N799A)	Agonist activity on Y745A mutant (words) (TRPM8 Y745A)	Agonist activity on I746A mutant (words) (TRPM8 I746A)	other results
Oc1cc2c(cc1O)CN(C(=S)NCCc1ccc(Cl)cc1)CCC2 [Capsazepine, reference compound]	–	–	–	–	IC100 (TRPM8; MIN control antagonist): 50 µM
O=C(NCOCc1ccc2ccccc2c1)c1cccnc1 [Compound 2]	7.92%	–	–	–	–
O=C(COc1ccc2ccccc2c1)NCc1cccnc1 [Compound 3]	0.00%	–	–	–	–
O=C(NCOCc1ccc2ccccc2c1)c1cncc(Br)c1 [Compound 4]	0.00%	–	–	–	–
CC1CCC(C(C)C)C(OCC(O)CO)C1 (stereo not drawn) [Cooling agent 10]	–	did not affect either maximal TRPM8 activation or EC50	completely abolished the activation	minimal residual activation	EC80 (TRPM8; MAX control agonist): 30000 nM; Agonist activity on I746A mutant (words) (TRPM8 I746A; listed as Cooling Agent 10): strongly reduced agonist activity
O=C1NC(c2cccc([N+](=O)[O-])c2)=CCN1c1ccccc1O [Icilin, icilin]	–	abrogated agonist activity	abrogated agonist activity	minimal residual activation	Agonist activity on N799A mutant (words) (TRPM8 N799A; listed as icilin): completely abolished TRPM8 activation; Agonist activity on Y745A mutant (words) (TRPM8 Y745A; listed as icilin): completely abolished the activation; EC50 (TRPM8 I746A; read-out: pIC50 of the agonist (agonist dose response), I746A (converted)): 126 nM; Agonist activity on D802A mutant (words) (TRPM8 D802A): abrogated agonist activity; Agonist activity on D802A mutant (words) (TRPM8 D802A; listed as icilin): completely abolished TRPM8 activation; EC50 (wt TRPM8): 251 nM
